SMILES strings stand for the structures. Where two headings read alike, the source gives them in different places.

The source of these data is publication PMC10948889, “Differential scanning fluorimetry to assess PFAS binding to bovine serum albumin protein” (Scientific Reports, 2024).

On the set-up of data set [1]: method as in PMID 29185060. The settings on record: octanol/water, EPA CompTox Chemicals Dashboard; cited from earlier work.
Details of data set [2]: method as in PMID 29185060. Conditions: octanol/water; experimental average (in parentheses), EPA CompTox Chemicals Dashboard; cited from earlier work.
Data set [3] has as its target T1, bovine serum albumin (BSA) (Bos taurus, UniProt P02769).
T1 construct: purchased Sigma-Aldrich (St. Louis, MO)
The data set is described as follows: Label-free differential scanning fluorimetry, equilibrium-based binding model near BSA melting temperature. The settings on record: for Ka (association constant): 61 °C, 10 μM BSA in pH 7.4 PBS, fit to Eqs. (1) and (2), standard error in parentheses. On the procedure: (§1) Bovine serum albumin (lyophilized powder, 99% fatty acid free) was obtained from Sigma-Aldrich (St. Louis, MO). A BSA concentration of 10 μM in pH 7.4 phosphate buffered saline (PBS) was used in each experiment. The solution of BSA was kept at 4 °C prior to use.
Experiments were conducted using a Tycho NT.6 differential scanning fluorimeter (NanoTemper, Munich, Germany). […] Solutions were prepared a day in advance of the experiment and stored at 4 °C. Immediately prior to analysis, each sample was loaded into a 1 mm diameter glass capillary and placed in the instrument. […] Fluorescence intensity was measured at 0.1 °C intervals at emission wavelengths of 330 and 350 nm. The ratio of the intensity at these wavelengths, I350/I330, was used to account for blue shifts in the emission peak wavelengths with increasing temperature. The minimum value of the first derivative of the I350/I330 curve with respect to temperature, denoting the midpoint of the melting transition where the fraction of folded to unfolded protein is 1, was taken as the melting temperature Tm. Each experiment was performed in triplicate.
As described by Eftink and Ghiron[44], baseline subtraction of the raw fluorescence intensity data collected at 350 nm was performed at both high and low temperatures. The plots were then normalized by dividing by the maximum intensity value.
The term fU is the fraction of unfolded protein based on the concentration of unfolded protein, [U], divided by the total protein, [P]t, which is the sum of [U], folded protein [F], and folded protein with bound ligand [FL]. [L] is the total free ligand by correcting the total ligand concentration, [L]t, which is a main benefit of this model. KU represents the equilibrium between folded and unfolded protein, and Kd is the ligand dissociation constant from the bound to unbound states.3 Kd=Ka-1=F[L]/[FL]
A general note: In DSF a fluorescence change marks the thermal transition of the protein.

The target of data set [4] is T1, bovine serum albumin (BSA). In words: Tryptophan fluorescence quenching from DSF, Hill adsorption model. Conditions: 35 °C to 50 °C. Type of data set: binding. As to the method:
as §1
(§2) Experiments were conducted using a Tycho NT.6 differential scanning fluorimeter (NanoTemper, Munich, Germany). PFAS was added to 2 mL of the stock BSA solution to obtain the PFAS:BSA or FA:BSA ratios of 0:1, 0.5:1, 1:1, 2:1, 3:1, and 4:1. Solutions were prepared a day in advance of the experiment and stored at 4 °C. Immediately prior to analysis, each sample was loaded into a 1 mm diameter glass capillary and placed in the instrument. Thermal scans were conducted from 35 to 95 °C at a scan rate of 0.5 °C s^−1 with a 285 nm excitation wavelength. Fluorescence intensity was measured at 0.1 °C intervals at emission wavelengths of 330 and 350 nm. The ratio of the intensity at these wavelengths, I350/I330, was used to account for blue shifts in the emission peak wavelengths with increasing temperature. The minimum value of the first derivative of the I350/I330 curve with respect to temperature, denoting the midpoint of the melting transition where the fraction of folded to unfolded protein is 1, was taken as the melting temperature Tm. Each experiment was performed in triplicate. The same procedure was used for the control ligand warfarin.
The Hill model has been used to correct for the presence of a fluorescent protein–ligand complex and binding cooperativity[21],[34].4 I0-I/I0-Ires=KHillQ^nHill/1+KHillQ^nHill
I0 and I are the fluorescence intensity of BSA in the absence and presence of the ligand and Ires accounts for residual fluorescence at infinite quencher concentration. KHill and nHill are the Hill binding constant and the cooperativity constant, respectively, and [Q] is the concentration of added quencher (PFAS or FA).

Data set [5] has as its target T1, bovine serum albumin (BSA). The data set is described as follows: Label-free differential scanning fluorimetry, BSA melting temperature shift (protein stabilization). Type of data set: binding. Conditions: for Stabilizing effect on BSA folded structure (ΔTm): ligand:BSA ratios 0:1 to 4:1, 10 μM BSA, pH 7.4 PBS. On the procedure:
as §1
as §2, with “Thermal scans were conducted from 35 to 95 °C at a scan rate of 0.5 °C s^−1 with a 285 nm excitation wavelength.” left out, “triplicate.” for “triplicate. The same procedure was used for the control ligand warfarin.”

The next data set deals with cattle. Conditions: varies by sex; cited from earlier work.
[6] abbreviates: ligand:BSA ratio up to 4:1, native protein Tm 62 °C.

T1 sequence (P02769 25-607): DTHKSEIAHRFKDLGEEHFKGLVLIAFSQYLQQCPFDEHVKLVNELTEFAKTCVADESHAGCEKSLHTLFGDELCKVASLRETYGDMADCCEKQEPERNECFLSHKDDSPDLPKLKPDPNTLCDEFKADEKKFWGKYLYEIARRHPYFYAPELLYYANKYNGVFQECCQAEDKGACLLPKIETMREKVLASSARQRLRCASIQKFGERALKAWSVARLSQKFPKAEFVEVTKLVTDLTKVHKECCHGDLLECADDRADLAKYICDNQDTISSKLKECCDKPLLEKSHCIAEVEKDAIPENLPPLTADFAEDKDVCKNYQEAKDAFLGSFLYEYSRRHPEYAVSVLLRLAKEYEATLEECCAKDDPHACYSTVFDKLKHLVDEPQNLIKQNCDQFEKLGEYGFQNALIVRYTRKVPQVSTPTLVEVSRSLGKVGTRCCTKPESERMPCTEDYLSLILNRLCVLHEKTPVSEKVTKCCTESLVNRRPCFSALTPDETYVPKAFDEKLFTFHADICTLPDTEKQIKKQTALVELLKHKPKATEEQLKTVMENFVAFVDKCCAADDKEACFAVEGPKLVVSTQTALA

Regarding `CCCCCCCC(=O)O` [OA, Octanoic acid], in data set [1], the “Log Kow (predicted average)” value was 2.99. The “Log Kow (experimental average)” value in data set [2] is 3.05.

With `CCCCCCCCCC(=O)O` [DA, Decanoic acid], the “Log Kow (predicted average)” value in data set [1] is listed as 4.03. Further, binding in data set [3] was put at a Kd of 27.6 µM.

`O=C(O)C(F)(F)C(F)(F)C(F)(F)C(F)(F)C(F)(F)C(F)(F)C(F)(F)C(F)(F)C(F)(F)F` [PFDA, Perfluorodecanoic acid]: the “Log Kow (predicted average)” value in data set [1] is reported as 7.32. Further, the “Log Kow (experimental average)” value in data set [2] was 4.15. Moreover, the “Ka (association constant)” value in data set [3] was 0.33 (0.26) 10^4 M^−1. Moreover, the “Temperature dependence of KHill (Hill association constant)” value (shortened to “Temperature dependence of KHill”) in data set [4] is on record as “increasing with temperature”. For the same compound, in data set [5], the “Stabilizing effect on BSA folded structure (ΔTm)” value is recorded as “no measurable protein stabilization”.

For `O=S(=O)(O)C(F)(F)C(F)(F)C(F)(F)C(F)(F)C(F)(F)C(F)(F)C(F)(F)C(F)(F)F` [PFOS, Sodium perfluorooctanesulfonate], the “Log Kow (predicted average)” value in data set [1] is 4.94. Moreover, in the data set on cattle, the half-life (in general, the time in which the quantity being followed falls by half) was 39 to 120 days. In data set [5], the “Stabilizing effect on BSA folded structure (ΔTm)” value was “minimal shift Tm”.

As for `O=S(=O)(O)C(F)(F)C(F)(F)C(F)(F)C(F)(F)C(F)(F)C(F)(F)F` [PFHxS, Sodium perfluorohexanesulfonate], the “Log Kow (predicted average)” value in data set [1] is 2.91. The Kd – broadly, the equilibrium constant for the complex coming apart – in data set [3] is 10.6 µM. For the same compound, the “Tm of BSA with ligand” value in data set [5] (setting [6]) lay within 69 to 71 °C. The “Stabilizing effect on BSA folded structure (ΔTm)” value in data set [5] was “greatest stabilizing effect”.

As to `O=C(O)C(F)(F)C(F)(F)C(F)(F)C(F)(F)C(F)(F)C(F)(F)C(F)(F)F` [PFOA, Perfluorooctanoic acid], in data set [1], the “Log Kow (predicted average)” value was 5.68. For the same compound, the “Log Kow (experimental average)” value in data set [2] is on record as 3.10. In data set [3], the Kd is 41 µM. The “Temperature dependence of KHill” value in data set [4] is given as “increasing with temperature”. In addition, the “Tm of BSA with ligand” value in data set [5] (setting [6]) is 69 to 71 °C.

Regarding `O=C(O)C(F)(F)C(F)(F)C(F)(F)C(F)(F)C(F)(F)C(F)(F)C(F)(F)C(F)(F)F` [PFNA, Perfluorononanoic acid], in data set [1], the “Log Kow (predicted average)” value is given as 6.51. Moreover, the “Log Kow (experimental average)” value in data set [2] is reported as 3.54. Also, in data set [4], the “Temperature dependence of KHill” value was “increasing with temperature”. In addition, in data set [5], the “Tm of BSA with ligand” value fell in the range of 69 to 71 °C and the “Stabilizing effect on BSA folded structure (ΔTm)” value is recorded as “greatest stabilizing effect”.

As to `O=S(=O)([O-])C(F)(F)C(F)(F)C(F)(F)C(F)(F)F.[Na+]` [PFBS, Sodium perfluorobutylsulfonate], the “Log Kow (predicted average)” value in data set [1] is given as 2.20. For the same compound, in data set [3], the “Ka (association constant)” value is recorded as 2.08 (0.61) 10^4 M^−1. Moreover, in data set [5], the “Stabilizing effect on BSA folded structure (ΔTm)” value is “little stabilization”.

In the case of `CCCCCCCCC(=O)O` [NA, Nonanoic acid], in data set [1], the “Log Kow (predicted average)” value is reported as 3.41. In data set [2], the “Log Kow (experimental average)” value is recorded as 3.42. In data set [3], this compound had a Kd of 0.341 µM.

In the case of `O=C(O)C(F)(OC(F)(F)C(F)(F)C(F)(F)F)C(F)(F)F` (stereo not drawn) [GenX, Perfluoro-2-methyl-3-oxahexanoic acid], the “Log Kow (predicted average)” value in data set [1] was 5.41. The compound further had a Kd in data set [3] of 50.5 µM. Moreover, in data set [4], the “Temperature dependence of KHill” value is “does not change with temperature”. Besides, the “Stabilizing effect on BSA folded structure (ΔTm)” value in data set [5] is listed as “little stabilization”.
